The source of these data is paper PMC6874057, “Synthesis of Chalcone Derivatives: Inducing Apoptosis of HepG2 Cells via Regulating Reactive Oxygen Species and Mitochondrial Pathway” (Frontiers in Pharmacology, 2019).

In one test the test system is A549. As to the kind of experiment: MTT cell viability assay, A549. The test is classed as cell-based, human. Particulars: mean ± SE. The method, then:
(§1) HeLa, A549, HepG2, HL-60, and WI-38 cell lines were incubated in DMEM solution containing 10% FBS for 48 h. The incubated tumor cells were seeded into 96-well plates (5 × 10^3 cells/well) to make them attach for 12 h. Afterwards, the cells were processed with the various concentrations of the synthetic compounds and 5-FU for 48 h. After removing the cell culture supernatant, 10 µl MTT (5 mg/ml) solution was dripped into the cells to generate a formazan product, which were dissolved by dimethyl sulfoxide (DMSO) 4 h later. Multifunction microplate reader (Bio-Rad Laboratories, Shanghai, China) was adopted to measure the absorbance at the wave length of 490 nm. The IC50 (the lowest drug concentration causing 50% of the tumor cells inhibition) was then calculated using GraphPad Prism Software (version 5.02) and used to indicate the cytotoxic effect of the target compounds on the selected tumor cells.
Background: Tetrazolium dyes change colour on reduction, which living cells bring about.

A further test relates to Hela. Briefly: MTT cell viability assay, Hela. The test is classed as cell-based, human. Particulars: 48 h, mean ± SE. Here is the method: as §1
Another test relates to HepG2. Briefly: MTT cell viability assay, HepG2. In kind it is cell-based, human. The settings on record: mean ± SE. The method, then:
as §1

Another test deals with HL-60. Briefly: MTT cell viability assay, HL-60. In kind it is cell-based, human. The settings on record: mean ± SE. Here is the method:
as §1

The subject of another test is WI-38. Briefly: MTT cell viability assay, normal cell line WI-38. The test is classed as cell-based, human. The settings on record: normal cells, mean ± SE. The method, then:
as §1

Test [1] deals with adherent tumor cell lines (HepG2, A549 and Hela). As to the kind of experiment: MTT assay, summary over adherent tumor cell lines. In kind it is cell-based. Particulars: Homo sapiens; span of IC50 over compounds a11-a14 and adherent tumor cell lines; read-out: IC50 range over cell lines. Here is the method:
as §1

The subject of test [2] is mitochondrial membrane potential in HepG2 cells. As to the kind of experiment: Mitochondrial membrane potential by JC-1 probe. In kind it is cell-based, human. The settings on record: CCCP for 20 min, without a14, positive control. Here is the method: JC-1 probe was used to detect changes in MMP. Firstly, HepG2 cells (3 × 10^5 cells/well) were seeded into a six-well plate overnight for adherence, and then treated with various concentrations of a14 for 48 h. Next, the cells were treated with JC-1 (2.5 µg/ml) at 37°C for 10 min in the dark and rinsed three times with PBS. Then, the six-well plate was placed under the fluorescence microscope (excitation 480/30× nm, emission 515 nm) to observe the fluorescence color and intensity of JC-1 in the cells. In addition, HepG2 cells (3 × 10^5 cells/well) were inoculated on another six-well plate overnight to allow adherence, and then treated with a14 (50 µM) for 0, 12, 24, 36, and 48 h, adding CCCP (without a14) for 20 min to completely lose the mitochondrial membrane potential. Cells were then incubated with JC-1 (2.5 µg/ml) at 37°C in the dark for 10 min and rinsed with PBS for three times. Fluorescence intensity of residual JC-1 in cells was measured by Beckman Coulter flow cytometer (FITC, 525/40BP). The data obtained was analyzed by CytExpert 2.0 software imbedded in the flow cytometry.

Broadly, the IC50 is the concentration needed to halve the response being measured. `O=c1[nH]cc(F)c(=O)[nH]1` [5-FU, reference compound]: the IC50 in the test with A549 (48 h) came out at 53.7 ± 1.16 µM; in the test on Hela, 35.2 ± 1.39 µM; with HepG2 (48 h) it was 42.9 ± 2.88 µM; in the test on HL-60 (48 h) it was 165 ± 4.74 µM; in the test with WI-38 (48 h), 62.8 ± 2.03 µM.

With `NC(=O)c1cc(C(=O)/C=C/c2ccc(F)cc2)ccc1O` [a1], the IC50 is 107 ± 2.14 µM with A549 (Homo sapiens, A549, 48 h); 125 ± 6.92 µM in the test on Hela (Homo sapiens, HeLa); 135 ± 9.79 µM in the test on HepG2 (Homo sapiens, HepG2, 48 h); 131 ± 5.38 µM with HL-60 (Homo sapiens, HL-60, 48 h); 229 ± 7.38 µM with WI-38 (Homo sapiens, WI-38, 48 h).

`NC(=O)c1cc(C(=O)/C=C/c2cccc(Cl)c2)ccc1O` [a2]: the IC50 with A549 (Homo sapiens, A549, 48 h) was 82.5 ± 3.61 µM; in the test with Hela (Homo sapiens, HeLa) it was 98.9 ± 2.9 µM; in the test with HepG2 (Homo sapiens, HepG2, 48 h), 77 ± 1.34 µM; with HL-60 (Homo sapiens, HL-60, 48 h), 135 ± 2.45 µM; in the test with WI-38 (Homo sapiens, WI-38, 48 h), 122 ± 2.33 µM.

As to `NC(=O)c1cc(C(=O)/C=C/c2cccc(Br)c2)ccc1O` [a3], the IC50 is 59.6 ± 5.23 µM in the test on A549 (Homo sapiens, A549, 48 h); 77.6 ± 4.74 µM in the test with Hela (Homo sapiens, HeLa); 71.2 ± 4.63 µM in the test with HepG2 (Homo sapiens, HepG2, 48 h); 141 ± 5.19 µM with HL-60 (Homo sapiens, HL-60, 48 h); 126.2 ± 0.46 µM with WI-38 (Homo sapiens, WI-38, 48 h).

For the compound `NC(=O)c1cc(C(=O)/C=C/c2ccc(Br)cc2)ccc1O` [a4], the IC50 in the test on A549 (Homo sapiens, A549, 48 h) is 48.2 ± 2.25 µM; in the test on Hela (Homo sapiens, HeLa), 65.9 ± 7.8 µM; in the test with HepG2 (Homo sapiens, HepG2, 48 h), 46.41 ± 0.05 µM; with HL-60 (Homo sapiens, HL-60, 48 h) it was 110 ± 2.04 µM; in the test with WI-38 (Homo sapiens, WI-38, 48 h) it was 100 ± 11.5 µM.

Take `NC(=O)c1cc(C(=O)/C=C/c2ccccc2)ccc1O` [a5]: the IC50 was determined as 57.2 ± 1.53 µM with A549 (Homo sapiens, A549, 48 h); 82.2 ± 4.8 µM in the test on Hela (Homo sapiens, HeLa); 68.1 ± 5.51 µM in the test with HepG2 (Homo sapiens, HepG2, 48 h); 108 ± 3.5 µM in the test on HL-60 (Homo sapiens, HL-60, 48 h); 127 ± 6.6 µM in the test with WI-38 (Homo sapiens, WI-38, 48 h).

`Cc1ccccc1/C=C/C(=O)c1ccc(O)c(C(N)=O)c1` [a6]: the IC50 in the test with A549 (Homo sapiens, A549, 48 h) turned out to be 51.3 ± 2.11 µM; with Hela (Homo sapiens, HeLa), 74.8 ± 2.33 µM; in the test with HepG2 (Homo sapiens, HepG2, 48 h), 75.4 ± 3.27 µM; in the test on HL-60 (Homo sapiens, HL-60, 48 h), 213 ± 2.98 µM; with WI-38 (Homo sapiens, WI-38, 48 h), 109 ± 1.49 µM.

Consider `Cc1cccc(/C=C/C(=O)c2ccc(O)c(C(N)=O)c2)c1` [a7], for which the IC50 with A549 (Homo sapiens, A549, 48 h) is 40.7 ± 3.68 µM; in the test on Hela (Homo sapiens, HeLa), 40.7 ± 1.33 µM; with HepG2 (Homo sapiens, HepG2, 48 h) it was 55.6 ± 3.23 µM; with HL-60 (Homo sapiens, HL-60, 48 h), 111 ± 1.57 µM; in the test on WI-38 (Homo sapiens, WI-38, 48 h) it was 81.7 ± 1.13 µM.

Take `Cc1ccc(/C=C/C(=O)c2ccc(O)c(C(N)=O)c2)cc1` [a8]: the IC50 in the test with A549 (Homo sapiens, A549, 48 h) stood at 65 ± 2.35 µM; in the test on Hela (Homo sapiens, HeLa), 53.6 ± 0.67 µM; in the test with HepG2 (Homo sapiens, HepG2, 48 h) it was 57.4 ± 3.07 µM; with HL-60 (Homo sapiens, HL-60, 48 h), 301 ± 3.53 µM; in the test on WI-38 (Homo sapiens, WI-38, 48 h), 147 ± 13.2 µM.

Regarding `COc1ccccc1/C=C/C(=O)c1ccc(O)c(C(N)=O)c1` [a9], the IC50 was 57.6 ± 1.42 µM in the test on A549 (Homo sapiens, A549, 48 h); 65.1 ± 1.34 µM in the test on Hela (Homo sapiens, HeLa); 80.3 ± 1.87 µM in the test on HepG2 (Homo sapiens, HepG2, 48 h); 210 ± 3.03 µM with HL-60 (Homo sapiens, HL-60, 48 h); 98.5 ± 4.91 µM with WI-38 (Homo sapiens, WI-38, 48 h).

With `COc1cccc(/C=C/C(=O)c2ccc(O)c(C(N)=O)c2)c1` [a10], the IC50 turned out to be 45.6 ± 1.05 µM with A549 (Homo sapiens, A549, 48 h); 54.4 ± 1.11 µM in the test with Hela (Homo sapiens, HeLa); 70.8 ± 4.03 µM in the test on HepG2 (Homo sapiens, HepG2, 48 h); 131 ± 4.64 µM with HL-60 (Homo sapiens, HL-60, 48 h); 93.3 ± 3.13 µM in the test with WI-38 (Homo sapiens, WI-38, 48 h).

Take `COc1ccc(/C=C/C(=O)c2ccc(O)c(C(N)=O)c2)cc1` [a11]: the IC50 was 35.8 ± 1.02 µM with A549 (Homo sapiens, A549, 48 h); 48.2 ± 0.56 µM in the test on Hela (Homo sapiens, HeLa); 44.7 ± 1.56 µM in the test on HepG2 (Homo sapiens, HepG2, 48 h); 245 ± 5.54 µM in the test on HL-60 (Homo sapiens, HL-60, 48 h); 89.5 ± 6.61 µM in the test on WI-38 (Homo sapiens, WI-38, 48 h); 23.3 to 54.4 µM in test [1].

For `COc1ccc(/C=C/C(=O)c2ccc(O)c(C(N)=O)c2)c(OC)c1` [a12], the IC50 in the test with A549 (Homo sapiens, A549, 48 h) was 41.2 ± 2.15 µM; in the test on Hela (Homo sapiens, HeLa), 35.3 ± 2.13 µM; with HepG2 (Homo sapiens, HepG2, 48 h), 54.37 ± 0.52 µM; in the test on HL-60 (Homo sapiens, HL-60, 48 h), 160 ± 3.59 µM; in the test with WI-38 (Homo sapiens, WI-38, 48 h) it was 123 ± 2.45 µM; in test [1], 23.3 to 54.4 µM.

For the compound `COc1ccc(/C=C/C(=O)c2ccc(O)c(C(N)=O)c2)cc1OC` [a13], the IC50 in the test with A549 (Homo sapiens, A549, 48 h) was 37.6 ± 1.11 µM; with Hela (Homo sapiens, HeLa) it was 31.8 ± 1.62 µM; in the test on HepG2 (Homo sapiens, HepG2, 48 h), 50.3 ± 4.03 µM; in the test with HL-60 (Homo sapiens, HL-60, 48 h), 134 ± 4.44 µM; in the test with WI-38 (Homo sapiens, WI-38, 48 h), 118 ± 3.53 µM; in test [1], 23.3 to 54.4 µM.

As to “carbonyl cyanide m-chlorophenyl hydrazine [CCCP, reference compound]”, in test [2], the “JC-1 (FITC), right of the gate line (green fluorescence)” value is given as 99.98%.
